Measured values as given in ChEMBL document CHEMBL3390848, “Affinity selection and sequence-activity relationships of HIV-1 membrane fusion inhibitors directed at the drug-resistant variants” (Medchemcomm, 2010).
pEC50: −log10 of the molar value. Residues, ends and D or L forms follow the SMILES beside them.

Key:
[1] = test system: Human immunodeficiency virus 1; assay: Antiviral activity against HIV1 NL4-3 harboring gp41 D36G mutant infected in human HeLa cells expressing CD4-LTR-beta-gal assessed as inhibition of viral replication after 48 hrs by MAGI assay; type: functional, organism-based
[2] = test system: Human immunodeficiency virus 1; assay: Thermal stability of HIV1 envelope glycoprotein gp41 His-tagged N-terminal heptad repeat N54-drug complex assessed as thermal unfolding transition state by measuring molar ellipticity at 4 to 90 degC by circular dichroic spectra analysis
[3] = test system: Human immunodeficiency virus 1; assay: Binding affinity to HIV1 His-tagged N-terminal heptad repeat of envelope glycoprotein gp41 assessed as recovery of N54-drug complex after 2 hrs by LC-MS analysis; parameters: concentration or dose not given beside the values

Row | Compound | pEC50 [1] | Tm [2] | Activity [3]
1 | CC[C@H](C)[C@H](NC(=O)[C@H](CC(C)C)NC(=O)[C@H](CCC(=O)O)NC(=O)[C@H](CCC(=O)O)NC(=O)[C@@H](NC(=O)[C@H](CC(C)C)NC(=O)[C@H](CO)NC(=O)[C@@H](NC(=O)[C@H](Cc1ccc(O)cc1)NC(C)=O)[C@@H](C)O)[C@@H](C)CC)C(=O)N[C@@H](CCCCN)C(=O)N[C@@H](CCCCN)C(=O)N[C@@H](CO)C(=O)N[C@@H](CCC(=O)O)C(=O)N[C@@H](CCC(=O)O)C(=O)N1CCC[C@H]1C(=O)N[C@@H](CCC(N)=O)C(=O)N[C@@H](CCCCN)C(=O)N[C@@H](CCCCN)C(=O)N[C@@H](CC(N)=O)C(=O)N[C@@H](CCC(=O)O)C(=O)N[C@@H](CCC(=O)O)C(=O)N[C@@H](CCC(=O)O)C(=O)N[C@@H](CC(C)C)C(=O)N[C@@H](CCCCN)C(=O)N[C@@H](CCCCN)C(=O)N[C@@H](CC(C)C)C(=O)N[C@@H](CCC(=O)O)C(=O)N[C@@H](CCC(=O)O)C(=O)N[C@@H](Cc1c[nH]c2ccccc12)C(=O)N[C@@H](C)C(=O)N[C@@H](CCCCN)C(=O)N[C@@H](CCCCN)C(=O)N[C@@H](Cc1c[nH]c2ccccc12)C(=O)N[C@@H](CC(N)=O)C(=O)N[C@@H](Cc1c[nH]c2ccccc12)C(=O)N[C@@H](Cc1ccccc1)C(N)=O (Ac-YTSLIEELIKKSEEPQKKNEEELKKLEEWAKKWNWF-NH2) | < 6.00 | 52 °C | 0.3%
2 | CC[C@H](C)[C@H](NC(=O)[C@H](CC(C)C)NC(=O)[C@H](CCC(=O)O)NC(=O)[C@H](CCC(=O)O)NC(=O)[C@@H](NC(=O)[C@H](CC(C)C)NC(=O)[C@H](CO)NC(=O)[C@@H](NC(=O)[C@H](Cc1ccc(O)cc1)NC(C)=O)[C@@H](C)O)[C@@H](C)CC)C(=O)N[C@@H](CCCCN)C(=O)N[C@@H](CCCCN)C(=O)NCC(=O)N[C@@H](CCC(=O)O)C(=O)N[C@@H](CCC(=O)O)C(=O)N[C@@H](CCC(N)=O)C(=O)N[C@@H](CCC(N)=O)C(=O)N[C@@H](CCCCN)C(=O)N[C@@H](CCCCN)C(=O)N[C@@H](CC(N)=O)C(=O)N[C@@H](CCC(=O)O)C(=O)N[C@@H](CCC(=O)O)C(=O)N[C@@H](CCC(=O)O)C(=O)N[C@@H](CC(C)C)C(=O)N[C@@H](CCCCN)C(=O)N[C@@H](CCCCN)C(=O)N[C@@H](CC(C)C)C(=O)N[C@@H](CCC(=O)O)C(=O)N[C@@H](CCC(=O)O)C(=O)N[C@@H](Cc1c[nH]c2ccccc12)C(=O)N[C@@H](C)C(=O)N[C@@H](CCCCN)C(=O)N[C@@H](CCCCN)C(=O)N[C@@H](Cc1c[nH]c2ccccc12)C(=O)N[C@@H](CC(N)=O)C(=O)N[C@@H](Cc1c[nH]c2ccccc12)C(=O)N[C@@H](Cc1ccccc1)C(N)=O (Ac-YTSLIEELIKKGEEQQKKNEEELKKLEEWAKKWNWF-NH2) | 9.40 | 76.7 °C | 9.6%
3 | CC[C@H](C)[C@H](NC(=O)[C@H](CC(C)C)NC(=O)[C@H](CCC(=O)O)NC(=O)[C@H](CCC(=O)O)NC(=O)[C@@H](NC(=O)[C@H](CC(C)C)NC(=O)[C@H](CO)NC(=O)[C@@H](NC(=O)[C@H](Cc1ccc(O)cc1)NC(C)=O)[C@@H](C)O)[C@@H](C)CC)C(=O)N[C@@H](CCCCN)C(=O)N[C@@H](CCCCN)C(=O)N[C@@H](CO)C(=O)N[C@@H](CCC(=O)O)C(=O)N[C@@H](CCC(=O)O)C(=O)N[C@@H](C)C(=O)N[C@@H](CCC(N)=O)C(=O)N[C@@H](CCCCN)C(=O)N[C@@H](CCCCN)C(=O)N[C@@H](CC(N)=O)C(=O)N[C@@H](CCC(=O)O)C(=O)N[C@@H](CCC(=O)O)C(=O)N[C@@H](CCC(=O)O)C(=O)N[C@@H](CC(C)C)C(=O)N[C@@H](CCCCN)C(=O)N[C@@H](CCCCN)C(=O)N[C@@H](CC(C)C)C(=O)N[C@@H](CCC(=O)O)C(=O)N[C@@H](CCC(=O)O)C(=O)N[C@@H](Cc1c[nH]c2ccccc12)C(=O)N[C@@H](C)C(=O)N[C@@H](CCCCN)C(=O)N[C@@H](CCCCN)C(=O)N[C@@H](Cc1c[nH]c2ccccc12)C(=O)N[C@@H](CC(N)=O)C(=O)N[C@@H](Cc1c[nH]c2ccccc12)C(=O)N[C@@H](Cc1ccccc1)C(N)=O (Ac-YTSLIEELIKKSEEAQKKNEEELKKLEEWAKKWNWF-NH2) | 8.57 | 70.4 °C | 5.6%
4 | CC[C@H](C)[C@H](NC(=O)[C@H](CC(C)C)NC(=O)[C@H](CCC(=O)O)NC(=O)[C@H](CCC(=O)O)NC(=O)[C@@H](NC(=O)[C@H](CC(C)C)NC(=O)[C@H](CO)NC(=O)[C@@H](NC(=O)[C@H](Cc1ccc(O)cc1)NC(C)=O)[C@@H](C)O)[C@@H](C)CC)C(=O)N[C@@H](CCCCN)C(=O)N[C@@H](CCCCN)C(=O)N[C@H](C(=O)N[C@@H](CCC(=O)O)C(=O)N[C@@H](CCC(=O)O)C(=O)N[C@@H](CCC(N)=O)C(=O)N[C@@H](CCC(N)=O)C(=O)N[C@@H](CCCCN)C(=O)N[C@@H](CCCCN)C(=O)N[C@@H](CC(N)=O)C(=O)N[C@@H](CCC(=O)O)C(=O)N[C@@H](CCC(=O)O)C(=O)N[C@@H](CCC(=O)O)C(=O)N[C@@H](CC(C)C)C(=O)N[C@@H](CCCCN)C(=O)N[C@@H](CCCCN)C(=O)N[C@@H](CC(C)C)C(=O)N[C@@H](CCC(=O)O)C(=O)N[C@@H](CCC(=O)O)C(=O)N[C@@H](Cc1c[nH]c2ccccc12)C(=O)N[C@@H](C)C(=O)N[C@@H](CCCCN)C(=O)N[C@@H](CCCCN)C(=O)N[C@@H](Cc1c[nH]c2ccccc12)C(=O)N[C@@H](CC(N)=O)C(=O)N[C@@H](Cc1c[nH]c2ccccc12)C(=O)N[C@@H](Cc1ccccc1)C(N)=O)[C@@H](C)CC (Ac-YTSLIEELIKKIEEQQKKNEEELKKLEEWAKKWNWF-NH2) | 9.40 | 79.7 °C | 10.4%
5 | CC[C@H](C)[C@H](NC(=O)[C@H](CC(C)C)NC(=O)[C@H](CCC(=O)O)NC(=O)[C@H](CCC(=O)O)NC(=O)[C@@H](NC(=O)[C@H](CC(C)C)NC(=O)[C@H](CO)NC(=O)[C@@H](NC(=O)[C@H](Cc1ccc(O)cc1)NC(C)=O)[C@@H](C)O)[C@@H](C)CC)C(=O)N[C@@H](CCCCN)C(=O)N[C@@H](CCCCN)C(=O)N[C@@H](CO)C(=O)N[C@@H](CCC(=O)O)C(=O)N[C@@H](CCC(=O)O)C(=O)N[C@@H](CCCCN)C(=O)N[C@@H](CCC(N)=O)C(=O)N[C@@H](CCCCN)C(=O)N[C@@H](CCCCN)C(=O)N[C@@H](CC(N)=O)C(=O)N[C@@H](CCC(=O)O)C(=O)N[C@@H](CCC(=O)O)C(=O)N[C@@H](CCC(=O)O)C(=O)N[C@@H](CC(C)C)C(=O)N[C@@H](CCCCN)C(=O)N[C@@H](CCCCN)C(=O)N[C@@H](CC(C)C)C(=O)N[C@@H](CCC(=O)O)C(=O)N[C@@H](CCC(=O)O)C(=O)N[C@@H](Cc1c[nH]c2ccccc12)C(=O)N[C@@H](C)C(=O)N[C@@H](CCCCN)C(=O)N[C@@H](CCCCN)C(=O)N[C@@H](Cc1c[nH]c2ccccc12)C(=O)N[C@@H](CC(N)=O)C(=O)N[C@@H](Cc1c[nH]c2ccccc12)C(=O)N[C@@H](Cc1ccccc1)C(N)=O (Ac-YTSLIEELIKKSEEKQKKNEEELKKLEEWAKKWNWF-NH2) | 8.42 | 65.3 °C | 4.8%
